Among the data in ChEMBL document CHEMBL1159232, “Bipolal: anti-microalgal compound isolated as a candidate for marine antifouling produced by Bipolaris sp. F5206” (1995) are MIC values, retold here.

Usually MIC stands for the smallest concentration in the dilution series that meets the test's criterion for growth inhibition.

The test system of this assay is Trichophyton mentagrophytes. The experiment in a line: Antimicrobial activity against Trichophyton mentagrophytes by microbroth dilution method. In kind it is functional. In general terms: In broth dilution the organism is exposed to a series of concentrations in liquid medium.

Converted amounts (≈) assume the structure as drawn.

`C=C(C=O)[C@]1(O)C[C@@]2(C)C(=CC1=O)C=C[C@H](OC(=O)/C=C/C=C/[C@@H](C)CC)[C@@H]2C`: the minimal inhibitory concentration (MIC) came out at 1.58 µg/mL (≈ 3.96 µM).
